Reference: ChEMBL document CHEMBL4043296 (J Med Chem, 2018)

Tests used:
[1] = molecular target: T1, Muscarinic acetylcholine receptor M4 (Homo sapiens) (UniProt P08173); experiment: (§1) Antagonist activity at human SP/Myc epitope-tagged muscarinic M4 receptor expressed in HEK293T cells assessed as inhibition of carbachol-induced RLuc8-fused Galphaq activation preincubated for 15 mins followed by carbachol induction measured after 2 mins by BRET assay; assay type: cell-based; settings: HEK-293T
T1 sequence (whole entry): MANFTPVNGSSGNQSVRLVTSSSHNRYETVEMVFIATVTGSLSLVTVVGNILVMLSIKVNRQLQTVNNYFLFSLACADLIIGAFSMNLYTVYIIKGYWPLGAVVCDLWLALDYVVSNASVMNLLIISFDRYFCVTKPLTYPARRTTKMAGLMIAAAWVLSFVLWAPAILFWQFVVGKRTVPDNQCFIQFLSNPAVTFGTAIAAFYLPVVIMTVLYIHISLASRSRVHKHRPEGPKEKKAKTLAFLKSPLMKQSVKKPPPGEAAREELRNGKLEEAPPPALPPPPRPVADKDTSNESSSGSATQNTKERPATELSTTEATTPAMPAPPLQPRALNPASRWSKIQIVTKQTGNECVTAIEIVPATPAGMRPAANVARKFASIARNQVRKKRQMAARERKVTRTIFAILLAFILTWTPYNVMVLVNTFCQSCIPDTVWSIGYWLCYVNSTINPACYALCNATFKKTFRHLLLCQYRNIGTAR

[2] = molecular target: T2, Muscarinic acetylcholine receptor M4 (Homo sapiens, UniProt P08173); experiment: as §1; assay type: cell-based, HEK-293T
T2 sequence (P08173 whole entry): T1 sequence (whole entry)

[3] = molecular target: T3, D(4) dopamine receptor (Homo sapiens, UniProt P21917); experiment: Agonist activity at human SP/Myc epitope-tagged dopamine D4 receptor expressed in HEK293T cells assessed as RLuc8-fused Galphai1 activation after 2 mins by BRET assay; assay type: cell-based, HEK-293T
T3 sequence (P21917 whole entry): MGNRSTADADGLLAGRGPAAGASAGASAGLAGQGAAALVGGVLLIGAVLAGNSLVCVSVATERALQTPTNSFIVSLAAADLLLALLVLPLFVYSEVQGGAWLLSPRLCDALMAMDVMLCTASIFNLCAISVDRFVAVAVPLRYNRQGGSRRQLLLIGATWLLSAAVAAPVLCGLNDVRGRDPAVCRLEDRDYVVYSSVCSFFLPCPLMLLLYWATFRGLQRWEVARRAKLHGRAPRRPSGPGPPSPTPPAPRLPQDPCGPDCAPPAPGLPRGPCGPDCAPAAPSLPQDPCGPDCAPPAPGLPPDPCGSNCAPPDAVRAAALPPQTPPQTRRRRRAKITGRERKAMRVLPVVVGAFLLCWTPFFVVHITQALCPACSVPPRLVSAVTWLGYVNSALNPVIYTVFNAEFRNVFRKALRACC

[4] = Cmax in CD1 mouse plasma at 3 mg/kg, sc after 0.25 hrs by UPLC-MS analysis; assay type: ADME, organism-based; parameters: dose 3 mg/kg, route subcutaneous

Structure (SMILES): O=C1CCc2ccccc2N1CCCN1CCC(Cc2ccccc2)CC1
- Imax [1]: 66%
- IC50 [2]: 8.51 µM

Structure (SMILES): O=C1CCc2ccccc2N1CCCN1CCN(c2ccccc2)CC1
- EC50 [3]: 0.000158 µM
- Cmax [4]: 481 ng/mL
